Experimental data: publication PMC4072668, “Mass Spectrometric Detection and Characterization of Atypical Membrane-Bound Zinc-Sensitive Phosphatases Modulating GABAA Receptors” (PLoS ONE, 2014)

How the values were obtained:
[1] = system: membrane-bound phosphatase activities of washed cortical membrane; assay: LC-MS/MS phosphatase assay with effectors, N-terminal phosphopeptide pI2α1N-P as substrate; format: biochemical
Protocol: (§1) Phosphatasic activity of bovine, rat and human washed cortical membranes was measured by using synthetic phosphopeptides as substrates. Reactions were performed in presence of 50 µg/ml (total proteins) of washed cortical membrane, 10 mM Hepes-Tris pH 7.4 and 1 mM MgCl2. Enzymatic reactions were initiated by adding 10 µM of phosphopeptide incubated for 10 min at 30°C and stopped by adding ice-cold acetic acid at a final concentration of 10% (w/v). Following a 800 g centrifugation during 10 min at 4°C, the supernatants were analyzed by LC-MS/MS. […] For these reasons, and to avoid micro-capillary column obstruction we have preferentially used the micro-LC column to characterize the pharmacological profile of phosphatasic activities.
Quantification of appearance of the native peptide and disappearance of the phosphopeptide in different conditions was performed using the calibration curve plotted using the Xcalibur software (P/N 64018-XCALI version 1.3). The calibration curve and linear regression were constructed using a series of standards, native and phosphorylated equimolar mixture, N- or C-terminal peptides at different concentrations 0.5, 1, 2, 5 and 10 µM (n = 2) in 10 mM Hepes pH 7.4, 1 mM Mg^2+ and 10% acetic acid, which was the same milieu condition as in the phosphatase assay after stopping reactions. The linear regression represents peak area of MS/MS chromatogram spectra depending on the peptide concentration (Figure S1).
Different effectors were tested by addition to the incubation medium at variable concentration: the dicationic ions Mg^2+, Ca^2+, Zn^2+ were used as chloride, the polycation spermine as hydrochloride, the anion F^− as sodium fluoride (NaF), and the inhibitors of some known phosphatases okadaic acid and the two (+/−) enantiomers of p–bromotetramisole oxalate (p-Br-t). For the inhibitory effects, relative 50% inhibition concentration (IC50) values were either determined graphically with a log-scale for the concentration axis or by the ‘log (inhibitor) vs. response’ nonlinear fit of Prism 5 software (GraphPad), considering activity in the absence of inhibitor as 100%.
Figure 4 Effects of various inhibitors on the membrane-bound phosphatase activities. […] Incubations were performed at 30°C during 10 min. The activities are expressed as a percentage of that of control samples without inhibitors. Inhibition profiles of PPase activities by okadaic acid were performed using N-terminal phosphopeptide (A) or C-terminal phosphopeptide (B) as substrate. The data points are means ± SEM of 3 experiments. The red arrows indicate the different IC50. […] Data points are the average ± SEM of duplicate assays. (D) Effect of Ca^2+ ions, fluoride (F^−) and spermine (SPM^4+) on PPase activity using N-terminal phosphopeptide as substrate.

[2] = system: membrane-bound phosphatase activities of washed cortical membrane; assay: LC-MS/MS phosphatase assay with effectors, C-terminal phosphopeptide pI2α1C-P as substrate; format: biochemical
Protocol: as §1
Quantification of appearance of the native peptide and disappearance of the phosphopeptide in different conditions was performed using the calibration curve plotted using the Xcalibur software (P/N 64018-XCALI version 1.3). […]
Figure 4 Effects of various inhibitors on the membrane-bound phosphatase activities. […] The activities are expressed as a percentage of that of control samples without inhibitors. […]

[3] = system: GABAA receptor currents in pyramidal neurons; assay: Whole-cell patch clamp, rundown of GABAA currents in acutely dissociated cortical pyramidal neurons; format: cell-based, rat; details: 10 µM in the pipette
Protocol: Adult Sprague Dawley rats (35–40 days of age) were anesthetized by isoflurane and killed by decapitation. The brains were removed quickly and placed in cold artificial cerebro-spinal fluid (Ringer) containing (in mM) 126 NaCl, 3 KCl, 26 NaHCO3, 1.25 Na2HPO4, 2.5 CaCl2, 1.5 MgCl2, 10 D-glucose, saturated with carbogen gas (O2:CO2, 95:5%) pH 7.4. Cortical neurons were acutely dissociated from 400 µm thick slices by incubation in 3 mg/ml protease-XXIII (Sigma) at 32°C, followed by mechanical dissociation. After washing, the cells were transferred in a solution containing (in mM) 135 NaCl, 3 KCl, 2 CaCl2, 10 Hepes, 1 MgCl2, 7 TEA-Cl, 10 D-glucose, and 1 µM TTX, pH 7.4. Pyramidal neurons were recorded using borosilicate glass pipettes (4–5 MΩ) filled with a solution containing (in mM) 130 CsF, 10 CsCl, 4 NaCl, 0.5 CaCl2, 10 Hepes, 5 EGTA, and 7 Mg-ATP. Okadaic acid at 10 µM was added to this intracellular milieu for specific experiments.
Whole-cell peak currents induced by GABA (100 µM; fast applications of 1 sec pulses every 3 min) were measured for each application and normalized to the maximal response.
Figure 5 Effects of okadaic acid on the GABAA current rundown. GABAA currents were measured by whole-cell patch clamp on acutely dissociated cortical pyramidal neurons from Sprague Dawley rats. (A) Micrographs of a patched cell at two different magnifications, showing the rapid application device (left). (B) Rundown in cortical neuron: GABA was applied at a concentration of 100 µM during 1 second every 3 min. […] For each group the plot (Left) is the average of normalized currents. Error bars indicate the SEM.

[4] = system: GABAA receptor currents in pyramidal neurons; parameters: method as in PMID 15342727; details: 10 µM in the pipette milieu, four neurons; cited from earlier work
PP1 = system: PP1; parameters: method as in PMID 10617768; details: mammalian brain; cited from earlier work
PP2A = system: PP2A; parameters: method as in PMID 10617768; details: mammalian brain; cited from earlier work
PP2B = system: PP2B; parameters: method as in PMID 10617768; details: mammalian brain; cited from earlier work
PP4 = system: PP4; parameters: method as in PMID 10617768; details: mammalian brain; cited from earlier work
PP5 = system: PP5; parameters: method as in PMID 10617768; details: mammalian brain; cited from earlier work
PP6 = system: PP6; parameters: method as in PMID 10617768; details: mammalian brain; cited from earlier work
PP2C = system: PP2C; parameters: method as in PMID 10617768; details: up to 1–10 µM; cited from earlier work
PTP = system: PTP; parameters: method as in PMID 10617768; details: up to 1–10 µM; cited from earlier work
PP7 = system: PP7; parameters: method as in PMID 10617768; details: up to 1–10 µM; cited from earlier work
acid phosphatase = system: acid phosphatase; parameters: method as in PMID 10617768; details: up to 1–10 µM; cited from earlier work
alkaline phosphatase = system: alkaline phosphatase; parameters: method as in PMID 10617768; details: up to 1–10 µM; cited from earlier work

## C=C1[C@@H](O)[C@@H]2O[C@]3(CC[C@H](/C=C/[C@@H](C)[C@@H]4CC(C)=C[C@@]5(O[C@H](C[C@@](C)(O)C(=O)O)CC[C@H]5O)O4)O3)CC[C@H]2O[C@@H]1[C@@H](O)C[C@H](C)[C@H]1O[C@@]2(CCCCO2)CC[C@H]1C [okadaic acid, Okadaic acid]
[1]; 300 nM, substrate pI2α1N-P
  inhibition of membrane-bound phosphatases: completely inhibits
[1]; 10 µM, substrate not specified
  inhibition of phosphatasic activities by the phosphopeptide method: inhibited most phosphatasic activities
[1]; substrate pI2α1N-P, read-out: apparent IC50, high affinity (H)
  IC50: 0.15 nM
[1]; substrate pI2α1N-P, read-out: apparent IC50, low affinity (L)
  IC50: 5 nM
[2]; 300 nM
  inhibition of membrane-bound phosphatases: completely inhibits
[2]; only one affinity, read-out: apparent IC50
  IC50: 0.18 nM
[3]
  GABAA current rundown in some cells: rundown could be abolished
[3]; n = 5, Dunnett's test Ns
  GABAA current rundown, 'Very Rapid' group of neurons vs control: not sensitive to okadaic acid
[3]; p<0.01 Mid Rapid, p<0.0001 Mid Slow and Very Slow
  GABAA current rundown, 'Mid Rapid', 'Mid Slow' and 'Very Slow' groups of neurons vs control: statistically different from the control
[4]
  effect on the GABAA current rundown: variable effect
PP1
  IC50: 270 nM
PP2A
  IC50: 2 nM
PP2B
  IC50: 3600 nM
PP4
  IC50: 0.2 nM
PP5
  IC50: 1.4 to 10 nM
PP6
  IC50: 2 nM
PP2C
  inhibition: not inhibited
PTP
  inhibition: not inhibited
PP7
  inhibition: not inhibited
Acid phosphatase
  inhibition: not inhibited
Alkaline phosphatase
  inhibition: not inhibited
